Counter-ions that a name gives are not always drawn.
Legend:
Set-up in all cases: species or system guinea pig
Male Guinea pigs = assay: Primary in vivo bronchodilator assay for muscarinic antagonists (reversal of carbachol bronchoconstriction); conditions: cumulative dose causing 50% reversal of carbachol bronchoconstriction; for ED50: Cavia porcellus, iv; for Bronchodilator Activity ED50: i.v.
Method: PRIMARY IN VIVO BRONCHODILATOR ASSAY FOR MUSCARINIC ANTAGONISTS Male Guinea pigs were anesthetized by urethane. The trachea, carotid artery and jugular vein were cannulated. Animals were ventilated with room air at a constant rate and volume. Airway pressure was measured from a side port of the tracheal catheter, and blood pressure and heart rate were monitored as well. After a stable baseline period, an aerosol of carbachol was administered via an ultrasonic nebulizer. Once the bronchoconstrictor response plateaued, test compound was given in increasing i.v. doses to cause graded, cumulative reductions in airway pressure. If more than a 50% reversal of bronchoconstriction occurred, an ED50 value for bronchodilator potency was calculated using a probit analysis. The ED50 was defined as the cumulative i.v. dose that caused a 50% reversal of bronchoconstriction.

[1] = target: T1, muscarinic cholinergic receptors on intestinal (ileal-longitudinal) smooth muscle (Cavia porcellus, UniProt H0W1Z3); assay: Antimuscarinic test: antagonism of carbachol contraction of isolated ileum (Muscarinic Antagonist Activity, Ileum); conditions: carbachol agonist, 37° C.
T1 construct: The longitudinal muscle, with the myenteric plexus attached, is separated from the underlying circular muscle; from tissue; host or cells: guinea pig ileum, longitudinal smooth muscle with myenteric plexus
T1 sequence (H0W1Z3 1-590): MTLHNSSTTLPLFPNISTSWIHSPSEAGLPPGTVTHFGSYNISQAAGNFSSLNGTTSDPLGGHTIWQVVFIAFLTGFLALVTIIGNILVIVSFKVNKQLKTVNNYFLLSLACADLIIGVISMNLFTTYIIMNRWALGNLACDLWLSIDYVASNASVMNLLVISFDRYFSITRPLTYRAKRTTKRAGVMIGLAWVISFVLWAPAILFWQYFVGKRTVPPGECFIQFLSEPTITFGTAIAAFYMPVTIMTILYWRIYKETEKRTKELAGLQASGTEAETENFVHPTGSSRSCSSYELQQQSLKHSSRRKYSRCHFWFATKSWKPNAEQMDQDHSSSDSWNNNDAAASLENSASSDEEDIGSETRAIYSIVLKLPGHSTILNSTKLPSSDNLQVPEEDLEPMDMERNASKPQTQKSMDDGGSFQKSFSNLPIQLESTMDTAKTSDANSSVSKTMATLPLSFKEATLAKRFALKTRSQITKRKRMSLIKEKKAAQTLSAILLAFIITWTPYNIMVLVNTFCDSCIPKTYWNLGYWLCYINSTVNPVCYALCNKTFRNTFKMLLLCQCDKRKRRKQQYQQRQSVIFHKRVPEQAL

[2] = target: T2, muscarinic cholinergic receptors on bladder detrusor muscle (Cavia porcellus, UniProt H0W1Z3); assay: Antimuscarinic test: antagonism of carbachol contraction of isolated bladder (Muscarinic Antagonist Activity, Bladder); conditions: bladder detrusor strips, carbachol agonist, 35° C.
T2 construct: The peritoneal cavity is opened and the bladder is held lightly at its apex; from tissue; host or cells: guinea pig urinary bladder, detrusor strips without mucosa
T2 sequence (H0W1Z3 1-590): as above
Method: ANTIMUSCARINIC TEST PROTOCOL
PREPARATION OF BLADDER FOR TESTING
Male albino guinea pigs are killed by decapitation or cervical dislocation. The peritoneal cavity is opened and the bladder is held lightly at its apex, stretched gently, and fat is lifted with fine forceps and dissected away in situ with blunt-tipped scissors as close to the surface of the bladder as possible. The tissue is placed in a latex-bottomed Petri dish that contains a modified Krebs solution (133 mM NaCl, 1.3 mM […], 16.3 mM NaHCO3, 4.7 mM KCl, 0.6 mM MgSO4.7H2 O, 2.5 mM CaCl2.2H2 O, 7.7 mM dextrose) and cut above the neck. The bladder is collapsed into a flat pouch, which is opened by two lateral incisions and unfolded to give a rectangular sheet of tissue approximately 2 cm long and 1 cm wide. The sheet is gently stretched and pinned to the bottom of the Petri dish. Blunt separation of the mucosa, which is visible as a looser superficial pink layer, is started at one end by carefully inserting the blades of micro dissecting scissors between the mucosa and muscle layers and using gentle spreading of the blades, together with steady traction with forceps to tease the two layers apart. Clean removal of the mucosa is usually possible without any fraying or tearing of the underlying muscle. The removal of the mucosa is considered essential for improving oxygen supply to the preparation and for providing better access on both sides of the thin muscle sheet for administered drugs (Ambache and Zar, J. Physiol. 210:671, 1970). The sheet is trimmed, if necessary, and cut longitudinally into four strips.
The strips are tied off with 5-0 silk suture and are then suspended in 10 mL water-jacketed glass tissue baths containing the Krebs solution maintained at 35° C. and aerated with 95% O2 /5% CO2. The suture connects each tissue to an isometric force-displacement transducer (Grass or Gould) coupled to a physiograph. Each preparation is suspended under a resting tension of 0.5 g and allowed to equilibrate for 36 minutes. During this period, the baths are emptied and filled every 12 minutes with 10 mL of warm Krebs buffer. At the end of this period, each muscle strip is conditioned by adding 10 μM carbachol to the baths. The drug remains in contact with each tissue for 1-2 minutes and then is removed by four rapid rinses of 10 mL of warm Krebs buffer. The preparations are allowed to recover for an additional 12 minutes before being used in experiments.
Carbachol is dissolved in saline to produce 2×10^-2 M stock concentrations. Serial dilutions (1:10) in saline or water are made from the stock solution. Appropriate volumes of these solutions are added cumulatively to the 10 mL tissue baths in order to obtain the desired bath concentrations.
PREPARATION OF TEST COMPOUNDS
Compounds that are soluble in water or saline are dissolved in these solvents to produce 2×10^-2 or 2×10^-3 M stock concentrations. Small amounts of IN HCl, NaOH, or 95% ethanol may be added for those agents that are not soluble in water or saline alone. Serial dilutions (1:10) in saline or water are made from the stock solution. Compounds that are insoluble in aqueous solvents are dissolved in dimethylsulfoxide (DMSO) to produce 4×10^-2 M stock solutions. Serial dilutions (1:10) in water are made from the stock solution. Other solvents may be used when appropriate and will be specifically described in the experimental procedure. Appropriate volumes are then added to the baths in order to obtain the desired bath concentrations.
Appropriate volumes of carbachol solutions are cumulatively added to the 10 mL tissue baths to increase the concentration of carbachol in the bath step-by-step without washing out after each single dose. With each concentration step, the tissue contracts isometrically. The next concentration is added only after the preceding contraction has reached a steady value. […]

Row | Kb [1] [nM] | Kb [2] [nM] | SMILES | ED50 (Male Guinea pigs) [mg/kg] | Bronchodilator Activity ED50 (Male Guinea pigs) [mg/kg]
1 | > 1000 |  | O=C1OC(C[N+]2=C3CCCCCN3CCC2)CC1(c1ccccc1)c1ccccc1 (centres unmarked) [5-[(1,8-Diazabicyclo[5.4.0]undec-7-en-8-yl)methyl]-4,5-dihydro-3,3-diphenyl-2(3H)furanone chloride hydrate] | > 10 | 
2 | 21 | 129 | CCc1nccn1C[C@H]1CC(c2ccccc2)(c2ccccc2)C(=O)O1 [(R)-(+)-5-[1-(2-Ethylimidazol)methyl]-4,5-dihydro-3,3-diphenyl-2(3H)furanone hydrochloride] |  | 
3 | 33 |  | O.O=C1OC(C[n+]2ccn3c2CCC3)CC1(c1ccccc1)c1ccccc1.[Cl-] (centres unmarked) [6,7-Dihydro-1-[(2,3,4,5-tetrahydro-5-oxo-4,4-diphenyl-2-furanyl)methyl]-5H-pyrrolo[1,2-a]imidazolium chloride hydrate] | 0.7 | 
4 | 435 |  | COC(=O)c1nccn1CC1CC(c2ccccc2)(c2ccccc2)C(=O)O1 (centres unmarked) [5-[1-(2-Carbomethoxyimidazol)methyl]-4,5-dihydro-3,3-diphenyl-2(3H)furanone hydrochloride] |  | 
5 | 45 |  | O=C1OC(C[n+]2ccn3ccccc32)CC1(c1ccccc1)c1ccccc1 (centres unmarked) [1-[(2,3,4,5-Tetrahydro-5-oxo-4,4-diphenyl-2-furanyl)methyl]imidazo[1,2-a]pyridinium chloride hydrate] |  | 
6 | 638 |  | COCCc1nccn1CC1CC(c2ccccc2)(c2ccccc2)C(=O)O1 (centres unmarked) [5-[1-(2-Methoxyethylimidazol)methyl]-4,5-dihydro-3,3-diphenyl-2(3H)furanone hydrochloride] | > 10 | 
7 | 86 |  | CCc1nc(C)cn1CC1CC(c2ccccc2)(c2ccccc2)C(=O)O1 (centres unmarked) [5-[1-(2-Ethyl-4-methylimidazol-methyl]-4,5-dihydro-3,3-diphenyl-2(3H)furanone hydrobromide] |  | 
8 | 489 |  | CC(C)Cc1nccn1CC1CC(c2ccccc2)(c2ccccc2)C(=O)O1 (centres unmarked) [5-[1-(2-Isobutylimidazol)methyl]-4,5-dihydro-3,3-diphenyl-2(3H)furanone hydrochloride] | > 10 | 
9 | 10 | 15 | CC(C)c1nccn1C[C@H]1CC(c2ccccc2)(c2ccccc2)C(=O)O1 [(R)-(+)-5-[1-(2-Isopropylimidazol)methyl]-4,5-dihydro-3,3-diphenyl-2(3H)furanone hydrochloride] |  | 
10 | 1280 |  | O=C1OC(Cn2cnc3ccccc32)CC1(c1ccccc1)c1ccccc1 (centres unmarked) [5-[(1-Benzimidazol)methyl]-4,5-dihydro-3,3-diphenyl-2(3H)furanone] |  | 
11 | 113 |  | CCCCc1nccn1CC1CC(c2ccccc2)(c2ccccc2)C(=O)O1 (centres unmarked) [5-[1-(2-n-Butylimidazol)methyl]-4,5-dihydro-3,3-diphenyl-2(3H)furanone] | > 10 | 
12 | 373 |  | O=C1OC(Cn2ccnc2)CC1(c1ccccc1)c1ccccc1 (centres unmarked) [5-[(1-Imidazol)methyl]-4,5-dihydro-3,3-diphenyl-2(3H)furanone] |  | 
13 | 223 |  | O=C1OC(Cn2ccnc2Cc2ccccc2)CC1(c1ccccc1)c1ccccc1 (centres unmarked) [5-[1-(2-Benzylimidazol)methyl]-4,5-dihydro-3,3-diphenyl-2(3H)furanone hydrochloride] |  | 
14 | 39 |  | COCCc1n(CC2CC(c3ccccc3)(c3ccccc3)C(=O)O2)cc[n+]1C (centres unmarked) [5-[1-(2-Methoxyethyl-3-methylimidazol)methyl]-4,5-dihydro-3,3-diphenyl-2(3H)furanone iodide hydrate] |  | 
15 | 544 |  | Cc1n(CC2CC(c3ccccc3)(c3ccccc3)C(=O)O2)cc[n+]1Cc1ccccc1 (centres unmarked) [5-[1-(2-Methyl-3-benzylimidazol)methyl]-4,5-dihydro-3,3-diphenyl-2(3H)furanone bromide] |  | 

Further lines, the molecule ahead of its results:

Row | SMILES | Kb [1] [nM] | Kb [2] [nM] | ED50 (Male Guinea pigs) [mg/kg] | Bronchodilator Activity ED50 (Male Guinea pigs) [mg/kg]
16 | Cc1n(CC2CC(c3ccccc3)(c3ccccc3)C(=O)O2)cc[n+]1C (centres unmarked) [5-[1-(2,3-Dimethylimidazol)methyl]-4,5-dihydro-3,3-diphenyl-2(3H)furanone bromide] | 71 |  | 0.85 | 
17 | O=C1OC(Cn2ccnc2-c2ccccc2)CC1(c1ccccc1)c1ccccc1 (centres unmarked) [5-[1-(2-Phenylimidazol)methyl]-4,5-dihydro-3,3-diphenyl-2(3H)furanone] | 5920 |  | > 6 | 
18 | CC(C)c1n(CC2CC(c3ccccc3)(c3ccccc3)C(=O)O2)cc[n+]1C (centres unmarked) [5-[1-(2-Isopropyl-3-methylimidazol)methyl]-4,5-dihydro-3,3-d] [5-[1-(2-Isopropyl-3-methylimidazol)methyl]-4,5-dihydro-3,3-diphenyl-2(3H)furanone iodide] |  |  |  | 0.06
19 | COCc1nccn1CC1CC(c2ccccc2)(c2ccccc2)C(=O)O1 (centres unmarked) [5-[1-[2-(2-Methoxymethyl)imidazol]methyl]-4,5-dihydro-3,3-diphenyl-2(3H)furanone hydrochloride hydrate] | 67 |  | > 10 | 
20 | CC(C)c1n(CC2CC(c3ccccc3)(c3ccccc3)C(=O)O2)cc[n+]1C (centres unmarked) [5-[1-(2-Isopropyl-3-methylimidazol-methyl]-4,5-dihydro-3,3-diphenyl-2(3H)furanone bromide] | 2.9 | 0.7 |  | 
21 | Cc1cccn2cc[n+](CC3CC(c4ccccc4)(c4ccccc4)C(=O)O3)c12 (centres unmarked) [1-[(2,3,4,5-Tetrahydro-5-oxo-4,4-diphenyl-2-furanyl)methyl]-8-methylimidazo[1,2-a]pyridinium chloride hydrate] | 74 |  |  | 
22 | CCc1nccn1CC1=CC(c2ccccc2)(c2ccccc2)C(=O)O1 [5-[1-(2-Ethylimidazol)methyl]-3,3-diphenyl-2(3H)furanone] | 8.2 |  | 1.9 | 
23 | CCn1cc[n+](CC2CC(c3ccccc3)(c3ccccc3)C(=O)O2)c1 (centres unmarked) [5-[1-(Ethylimidazol)methyl]-4,5-dihydro-3,3-diphenyl-2(3H)furanone bromide] | 229 |  |  | 
24 | CCOCc1nccn1CC1CC(c2ccccc2)(c2ccccc2)C(=O)O1 (centres unmarked) [5-[1-(2-Ethoxymethylimidazol)methyl]-4,5-dihydro-3,3-diphenyl-2(3H)furanone] | > 1000 |  | > 10 | 
25 | CC(C)(C)c1nccn1CC1CC(c2ccccc2)(c2ccccc2)C(=O)O1 (centres unmarked) [5-[1-(2-tert-Butylimidazol)methyl]-4,5-dihydro-3,3-diphenyl-2(3H)furanone hydrochloride] | 3.3 |  | 0.14 | 
26 | CC(C)c1n(CC2CC(c3ccccc3)(c3ccccc3)C(=O)O2)cc[n+]1C (centres unmarked) [5-[1-(2-Isopropyl-3-methylimidazol-methyl]-4,5-dihydro-3,3-d] [5-[1-(2-Isopropyl-3-methylimidazol-methyl]-4,5-dihydro-3,3-diphenyl-2(3H)furanone bromide] |  |  |  | 0.007
27 | COCc1n(CC2CC(c3ccccc3)(c3ccccc3)C(=O)O2)cc[n+]1C (centres unmarked) [5-[1-(2-Methoxymethyl-3-methylimidazol)methyl]-4,5-dihydro-3,3-diphenyl-2(3H)furanone iodide] | 40 |  |  | 
